Measured values from PubChem BioAssay (NCI).
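All cell lines were grown in 96-well plates and treated with compound for 48 hours. TGI marks complete inhibition of growth.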

Assays:
Assay in all cases: NCI-60 cell line screen, 48 h
[1] = system: U251 CNS
[2] = system: 786-0 renal
[3] = system: CCRF-CEM leukemia
[4] = system: OVCAR-8 ovarian
[5] = system: M14 melanoma
[6] = system: SK-MEL-28 melanoma
[7] = system: SN12C renal
[8] = system: NCI-H226 lung
[9] = system: MOLT-4 leukemia
[10] = system: TK-10 renal
[11] = system: SF-295 CNS
[12] = system: LOX IMVI melanoma
[13] = system: RPMI-8226 leukemia
[14] = system: HL-60(TB) leukemia
[15] = system: SK-MEL-5 melanoma
[16] = system: OVCAR-3 ovarian
[17] = system: HOP-92 NSCLC
[18] = system: MDA-N
[19] = system: MDA-MB-435
[20] = system: DU-145 prostate

| Compound | TGI [1] | TGI [2] | TGI [3] | TGI [4] | TGI [5] | TGI [6] | TGI [7] | TGI [8] | TGI [9] | TGI [10] | TGI [11] | TGI [12] | TGI [13] | TGI [14] | TGI [15] | TGI [16] | TGI [17] | TGI [18] | TGI [19] | TGI [20] |
| --- | --- | --- | --- | --- | --- | --- | --- | --- | --- | --- | --- | --- | --- | --- | --- | --- | --- | --- | --- | --- |
| CC1(c2cccc3c2C2(O)C=CC4(CCC32)OCCO4)OCCO1 (stereo not drawn) | > 100 µM | > 100 µM | > 100 µM | > 100 µM | > 100 µM | > 100 µM | > 100 µM | > 100 µM | > 100 µM | > 100 µM | > 100 µM | > 100 µM | > 100 µM | > 100 µM | > 100 µM | > 100 µM | – | – | – | – |
| O=S1(=O)NNC(=NCc2ccc(Cl)c(Cl)c2)c2ccccc21 | > 100 µM | > 100 µM | 81 µM | > 100 µM | > 100 µM | – | > 100 µM | > 100 µM | 98.8 µM | – | > 100 µM | > 100 µM | 61 µM | > 100 µM | > 100 µM | > 100 µM | > 100 µM | – | – | – |
| O=C(O)c1nc2cc(C(F)(F)F)ccc2nc1Nc1ccc(Cl)c(Cl)c1 | 33.6 µM | 29.3 µM | – | 26 µM | 26 µM | – | – | 34 µM | – | 37.1 µM | 31.7 µM | 31.2 µM | 59 µM | – | 52.6 µM | 26.4 µM | 23.1 µM | 69.2 µM | 18.6 µM | – |
| COc1ccc(N(C)CN(C)c2nc(N(C)C)nc(N(C)C)n2)cc1 | > 100 µM | > 100 µM | > 100 µM | > 100 µM | > 100 µM | > 100 µM | > 100 µM | – | > 100 µM | > 100 µM | > 100 µM | > 100 µM | > 100 µM | > 100 µM | > 100 µM | > 100 µM | > 100 µM | – | – | – |
| CC1C2=C(CC(C)(C)CC2=O)NC2=C1C(=O)CC(C)(C)C2 | > 100 µM | > 100 µM | > 100 µM | > 100 µM | > 100 µM | > 100 µM | > 100 µM | > 100 µM | > 100 µM | > 100 µM | – | > 100 µM | > 100 µM | > 100 µM | > 100 µM | > 100 µM | > 100 µM | – | – | – |
| CNC(C)Cc1ccccc1O (stereo not drawn) | > 100 µM | > 100 µM | > 100 µM | > 100 µM | > 100 µM | > 100 µM | > 100 µM | > 100 µM | > 100 µM | > 100 µM | > 100 µM | > 100 µM | > 100 µM | > 100 µM | > 100 µM | > 100 µM | > 100 µM | – | – | – |
| CCCCCCCC(=O)OC[C@@H](C[As](=O)(O)O)OC(=O)CCCCCCC | 19.9 µM | 24.7 µM | 9.55 µM | 37.5 µM | 29.6 µM | 26.6 µM | 23.3 µM | 18.6 µM | 18.6 µM | – | 28.9 µM | – | 46.2 µM | 21.7 µM | 26.9 µM | – | 37.6 µM | – | – | – |
| Cc1ccc(N/C(Sc2ccccc2)=C(/C(Cl)=C(Cl)Cl)[N+](=O)[O-])c(C)c1 | 26.7 µM | 39.1 µM | 76.1 µM | > 100 µM | 59.7 µM | 41.2 µM | 43.1 µM | 55.4 µM | > 100 µM | > 100 µM | 47 µM | 28.2 µM | 64.8 µM | 56.2 µM | 81.7 µM | – | 45.8 µM | – | 27.7 µM | > 87.1 µM |
| COc1cc2cc[n+](C)c(Cc3ccccc3)c2cc1OC | > 100 µM | > 100 µM | > 100 µM | > 100 µM | > 100 µM | > 100 µM | > 100 µM | > 100 µM | > 100 µM | > 100 µM | > 100 µM | > 100 µM | > 100 µM | – | > 100 µM | > 100 µM | > 100 µM | – | – | – |
| C#CCSc1nc(N)c2ncn(C3OC(CO)C(O)C3O)c2n1 (stereo not drawn) | > 100 µM | > 100 µM | > 100 µM | > 100 µM | – | > 100 µM | > 100 µM | – | > 100 µM | > 100 µM | > 100 µM | > 100 µM | > 100 µM | > 100 µM | > 100 µM | > 100 µM | – | – | – | – |
| CN(C)CCNc1ccc2ncnc3c2c1C(=O)c1ccccc1-3 | 17.9 µM | 5.47 µM | 2.89 µM | 10.5 µM | 1.42 µM | 10.9 µM | 13.9 µM | 3.74 µM | 2.31 µM | 3.92 µM | 2.88 µM | 10.5 µM | 3.83 µM | > 23.6 µM | 4.99 µM | 10.1 µM | 8.43 µM | 4.11 µM | 6.21 µM | – |
| Cc1nc2ccccc2c(=O)n1-c1n[nH]c2ccccc12 | > 100 µM | > 100 µM | > 100 µM | > 100 µM | > 100 µM | > 100 µM | > 100 µM | > 100 µM | > 100 µM | > 100 µM | > 100 µM | > 100 µM | > 100 µM | – | > 100 µM | > 100 µM | > 100 µM | – | > 100 µM | > 100 µM |
| CNC(=O)CCNC(=O)CCC(=O)N(C)C | > 100 µM | > 100 µM | – | > 100 µM | > 100 µM | > 100 µM | > 100 µM | – | > 100 µM | > 100 µM | > 100 µM | – | > 100 µM | – | > 100 µM | > 100 µM | – | > 100 µM | > 100 µM | > 100 µM |
| Clc1cc(OCc2nn3c(Cc4ccccc4)nnc3s2)ccc1OCc1nn2c(Cc3ccccc3)nnc2s1 | 51.5 µM | 56.8 µM | – | 62.9 µM | > 100 µM | > 100 µM | > 100 µM | > 100 µM | > 100 µM | 72.1 µM | 63.9 µM | > 100 µM | > 100 µM | > 100 µM | > 100 µM | > 100 µM | 46.5 µM | – | > 100 µM | > 100 µM |
| C[C@@]12c3c4ccc(C=O)c3Oc3ccc(C=O)c(c31)Oc1c(C=O)ccc(c12)O4 | > 100 µM | > 100 µM | – | > 100 µM | > 100 µM | > 100 µM | > 100 µM | > 100 µM | > 100 µM | > 100 µM | > 100 µM | > 100 µM | > 100 µM | – | > 100 µM | > 100 µM | > 100 µM | > 100 µM | > 100 µM | – |
| Cc1c(/C=N/NC(=S)Nc2cccc(Cl)c2)c(=O)n(-c2ccccc2)n1C | 44.6 µM | 37 µM | > 100 µM | 35.6 µM | 40.1 µM | > 100 µM | – | 33.9 µM | > 100 µM | 44.3 µM | 28 µM | > 100 µM | > 100 µM | > 100 µM | > 100 µM | – | 31.7 µM | – | > 100 µM | 66.9 µM |
| O=C(O)c1c[nH]c2c(=O)[nH]cnc12 | – | > 100 µM | > 100 µM | > 100 µM | > 100 µM | > 100 µM | > 100 µM | – | > 100 µM | > 100 µM | > 100 µM | > 100 µM | > 100 µM | > 100 µM | > 100 µM | > 100 µM | > 100 µM | – | – | – |
| COc1ccc(-c2cnoc2-c2ccc(OC)c(OC)c2)cc1OC | 11.4 µM | 6.9 µM | 13.4 µM | 40.9 µM | 5.39 µM | > 21.9 µM | 33.7 µM | > 24 µM | 35.9 µM | 43.2 µM | 4.27 µM | 5.22 µM | 18.5 µM | 2.88 µM | 6.71 µM | 7.54 µM | 21.3 µM | – | – | – |
| CCC(CC)C(=O)OC[n+]1ccc(-c2c(COC(=O)NC(C)C)c(COC(=O)NC(C)C)c3n2CCC3)cc1 | > 100 µM | > 100 µM | > 100 µM | > 100 µM | > 100 µM | – | > 100 µM | > 100 µM | > 100 µM | – | > 100 µM | – | > 100 µM | > 100 µM | > 100 µM | > 100 µM | > 100 µM | > 100 µM | – | – |
| O=S(=O)(C(=Ic1ccccc1)S(=O)(=O)C(F)(F)C(F)(F)C(F)(F)C(F)(F)F)C(F)(F)C(F)(F)C(F)(F)C(F)(F)F | 29.5 µM | 29.5 µM | 18.1 µM | – | 28.2 µM | 29.4 µM | – | 15 µM | 13.8 µM | 29.9 µM | 30.6 µM | 28 µM | 86.4 µM | 62 µM | 27.5 µM | 29.3 µM | 23.1 µM | – | 36.8 µM | – |
| [N-]=[N+]=Nc1ccc(NCCCCCC(=O)ON2C(=O)CCC2=O)c([N+](=O)[O-])c1 | > 100 µM | > 100 µM | – | > 100 µM | > 100 µM | > 100 µM | > 100 µM | > 100 µM | > 100 µM | > 100 µM | > 100 µM | > 100 µM | – | > 100 µM | > 100 µM | > 100 µM | 87.6 µM | – | > 100 µM | > 100 µM |
| O=C1NCN(c2ccccc2)C12CCN(CCc1ccc3[nH]c(=S)[nH]c3c1)CC2 | 98.4 µM | > 100 µM | 22 µM | > 100 µM | 58.3 µM | 20.3 µM | > 100 µM | – | > 100 µM | 92.9 µM | > 100 µM | 36.8 µM | 59.3 µM | > 100 µM | 31.7 µM | > 100 µM | 93.7 µM | – | 35.6 µM | > 100 µM |
